Experimental data from patent publication US12369583B2, “Nematicidal compositions” (SYNGENTA CROP PROTECTION AG, priority 2018, dated 2025).

Legend:
[1] = tested on: Root Knot Nematode (Meloidogyne incognita) eggs; test: Evaluation of Root Knot Nematode egg hatch; assay type: cell-based
[2] = tested on: Soybean Cyst Nematode (Heterodera glycines) eggs; test: Evaluation of Soybean Cyst Nematode egg hatch; assay type: cell-based
[3] = tested on: Reniform Nematode (Rotylenchulus reniformis); test: Reniform Nematode efficacy on soybean, soil nematode count compared to check; assay type: in vivo
[4] = tested on: Soybean Cyst Nematode (Heterodera glycines); test: Control of Heterodera glycines on soybean in a greenhouse, seed treatment; assay type: in vivo
Description: Methodology for evaluating control of Heterodera glycines at all life stages on soybean in a greenhouse.
Five thousand Heterodera glycine eggs where placed in a 1 inch hole in the center of 3.5 inch×8 inch deep plastic pots. The seeds were inoculated first when applying the active compound as a seed treatment. The treated seed was placed in the center hole and covered up with sterilized top soil. Each pot was watered by hand, with approximately 50 mls of water applied to each pot once per day. 35 day after planting, the soil was gently rinsed from the roots of the emerged plants and place in a 20 mesh over a 60-mesh sieve. The root system was blasted with water to remove mature females. The 20-mesh sieve removed. The females were washed to the bottom of the 60-mesh sieve and rinsed into a tube for counting under a stereoscope. For root penetration experiments, the roots of the plants were removed from the pots at 7-14 days after planting, rinsed clean of soil, and stained with acid fuchsin stain. Stained nematodes in the roots were counted using an electronic stereoscope.
The action of pydiflumetofen against soybean syst nematode (SCN; Heterodera glycines) and its effect on soybean plants was assessed out as described previously, and compared to that of fluopyram. The number of SCN per stained root was counted, and the mean root weight per plant calculated, thus enabling the number of SCN per gram of root to be calculated.

[5] = tested on: Soybean Cyst Nematode (Heterodera glycines) on Soybean; test: Soybean yield data, seed treatment (trials 4-6); assay type: in vivo
[6] = tested on: Lesion Nematode (Pratylenchus Spp.); test: Lesion Nematode control in corn, stained root tissue; assay type: in vivo
Description: Corn root tissue was stained using acid fuchsin/methyl blue to assess for endoparasitic, endo/ectoparasitic, and semi endoparasitic nematodes that have entered the root system, using standard methodology. The effect of pydiflumetofen was compared to fluopyram.

[7] = tested on: Lesion Nematode (Pratylenchus brachyurus); test: Lesion Nematode efficacy on soybean, stained roots; assay type: in vivo
Description: Soybean plant roots were stained using acid fuchsin/methyl blue to assess for endoparasitic, endo/ectoparasitic, and semi endoparasitic nematodes that have entered the root system, using standard methodology.

[8] = tested on: Root Knot Nematode (Meloidogyne incognita); test: Root Knot Nematode control on soybean, gall count and rating; assay type: in vivo
Description: Root Knot Nematode (Meloidogyne incognita) Methodology for Evaluating Root Knot Nematode Gall Count and Rating Process The roots of the plants were removed from the soil. The root system was then sprayed with water to remove remaining soil. The roots were spread out on a tray or counter top and the rate of galling or place each root system under a magnification light and count galls. For gall assessment ratings, a rating on a scale of 0-10 scale was given when compared against a standard gall rating chart. Gall count was also assessed.

[9] = tested on: Root Knot (Meloidogyne incognita); test: Multiple nematode species on cotton, soil counts: Root Knot; assay type: in vivo; settings: 0.15 mg ai/seed, measured 71 days after planting
[10] = tested on: Spiral (Helicotylenchus Spp.); test: Multiple nematode species on cotton, soil counts: Spiral; assay type: in vivo; settings: 0.15 mg ai/seed, measured 71 days after planting
Lance (Hoplolaimus Spp.) = test: In vitro dose response assay against Lance nematode; assay type: cell-based
Description: (§1) Lance (Hoplolaimus Spp.) and Sting (Belonolaimus longicaudatus) Nematode In Vitro Assay Measuring Dose Response of APN Against Sting and Lance Nematode.

[11] = tested on: Reniform Nematode (Rotylenchulus reniformis); test: Multiple nematode species on cotton, soil counts: Reniform; assay type: in vivo; settings: 0.15 mg ai/seed, measured 71 days after planting
[12] = tested on: Sting (Belonolaimus longicaudatus); test: In vitro dose response assay against Sting nematode; assay type: cell-based
Description: as §1

[13] = Sodium hypochlorite 30%, no ppm concentration printed
[14] = Series 2 Trial 1, 0.075 mg ai/seed
[15] = Series 2 Trial 1, 0.15 mg ai/seed
[16] = Series 2 Trial 1, 0.30 mg ai/seed
[17] = Series 1 Trial 1, 0.0375 mg ai/seed
[18] = Series 1 Trial 1, 0.075 mg ai/seed
[19] = Series 1 Trial 1, 0.15 mg ai/seed
[20] = Series 1 Trial 2, 0.075 mg ai/seed
[21] = Series 1 Trial 2, 0.15 mg ai/seed

Compound: O=S(=O)(CCC(F)=C(F)F)c1ncc(Cl)s1 [Fluensulfone]
- Percent Egg Hatch Reduction ([1]; 1 ppm): −3.5%
- Percent Egg Hatch Reduction ([1]; 10 ppm): −0.9%
- Percent Egg Hatch Reduction ([1]; 100 ppm): 48.8%
- Percent Egg Hatch Reduction ([2]; 1 ppm): −2.1%
- Percent Egg Hatch Reduction ([2]; 10 ppm): −1.5%
- Percent Egg Hatch Reduction ([2]; 100 ppm): 0.5%

Compound: CNC(=O)O/N=C/C(C)(C)SC [Aldicarb]
- Nematode Reduction Compared to Check (mean difference in soil nematode count) ([3]; in-furrow (5.6 Kg/Ha)): −1937

Compound: OCl [Sodium hypochlorite 30%, Sodium hypochlorite]
- Percent Egg Hatch Reduction [1, 13]: 100.0%
- Percent Egg Hatch Reduction [2, 13]: 100.0%

Compound: c1ccc(-c2noc(-c3cccs3)n2)cc1 [Tioxazafen]
- Percent Egg Hatch Reduction ([1]; 1 ppm): −1.9%
- Percent Egg Hatch Reduction ([1]; 10 ppm): −0.8%
- Percent Egg Hatch Reduction ([1]; 100 ppm): 4.4%
- Percent Egg Hatch Reduction ([2]; 1 ppm): 0.4%
- Percent Egg Hatch Reduction ([2]; 10 ppm): −0.5%
- Percent Egg Hatch Reduction ([2]; 100 ppm): −0.9%

Compound: O=C(NCCc1ncc(C(F)(F)F)cc1Cl)c1ccccc1C(F)(F)F [Fluopyram, reference compound]
- Nematode Reduction Compared to Check (mean difference in soil nematode count) ([3]; 0.15 mg/seed): −3146
- Percent Egg Hatch Reduction ([1]; 1 ppm): 1.1%
- Percent Egg Hatch Reduction ([1]; 10 ppm): 55.9%
- Percent Egg Hatch Reduction ([1]; 100 ppm): 54.7%
- Percent Egg Hatch Reduction ([2]; 1 ppm): −1.3%
- Percent Egg Hatch Reduction ([2]; 10 ppm): 4.5%
- Percent Egg Hatch Reduction ([2]; 100 ppm): 61.9%
- Mean SCN/root [4, 14]: 20.8
- No. SCN/g root tissue [4, 14]: 12.1
- Mean SCN/root [4, 15]: 17.7
- No. SCN/g root tissue [4, 15]: 30.3
- Mean SCN/root [4, 16]: 7.3
- No. SCN/g root tissue [4, 16]: 23.4
- Mean Difference in Yield Compared to Checks ([5]; Trial 4, 0.15 mg ai/seed): −3.5 Bu/Ac
- Mean Difference in Yield Compared to Checks ([5]; Trial 5, 0.15 mg ai/seed): +5.4 Bu/Ac
- Mean Difference in Yield Compared to Checks ([5]; Trial 6, 0.15 mg ai/seed): +2.9 Bu/Ac
- Lesion Nematode per gram of Root ([6]; 0.25 mg ai/seed): 211
- Lesion Nematodes within root system ([6]; 0.25 mg ai/seed): 108

Compound: CON(C(=O)c1cn(C)nc1C(F)F)C(C)Cc1c(Cl)cc(Cl)cc1Cl (centres unmarked) [Pydiflumetofen, 3-(difluoromethyl)-N-methoxy-1-methyl-N-[1-methyl-2-(2,4,6-trichloro-phenyl)ethyl]-1H-pyrazole-4-carboxamide]
- Lesion Nematode per gram of Root ([7]; 0.0375 mg ai/seed): 164.3
- Lesion Nematodes w/l root ([7]; 0.0375 mg ai/seed): 44.9
- Lesion Nematode per gram of Root ([7]; 0.075 mg ai/seed): 141.5
- Lesion Nematodes w/l root ([7]; 0.075 mg ai/seed): 38.3
- Lesion Nematode per gram of Root ([7]; 0.15 mg ai/seed): 105.3
- Lesion Nematodes w/l root ([7]; 0.15 mg ai/seed): 32.3
- Nematode Reduction Compared to Check (mean difference in soil nematode count) ([3]; 0.075 mg/seed): −2912
- Root Knot Nematode Galling (0-10 scale) ([8]; 0.075 mg ai/seed): 6.8
- Root Knot Nematode Galls per Root ([8]; 0.075 mg ai/seed): 52.6
- Root Knot Nematode Galling (0-10 scale) ([8]; 0.15 mg ai/seed): 1.5
- Root Knot Nematode Galls per Root ([8]; 0.15 mg ai/seed): 11.2
- Percent Egg Hatch Reduction ([1]; 1 ppm): 1.7%
- Percent Egg Hatch Reduction ([1]; 10 ppm): 12.8%
- Percent Egg Hatch Reduction ([1]; 100 ppm): 30.6%
- Juveniles per 100 cc s Soil [9]: 132
- Percent Egg Hatch Reduction ([2]; 1 ppm): 4.7%
- Percent Egg Hatch Reduction ([2]; 10 ppm): 34.7%
- Percent Egg Hatch Reduction ([2]; 100 ppm): 64.0%
- Cysts per Gram of Root [4, 17]: 147.9
- Mature SCN Cysts [4, 17]: 24.0
- Stained Juveniles w/l root [4, 17]: 22.5
- Cysts per Gram of Root [4, 18]: 167.5
- Mature SCN Cysts [4, 18]: 21.3
- Stained Juveniles w/l root [4, 18]: 19.0
- Cysts per Gram of Root [4, 19]: 105.0
- Mature SCN Cysts [4, 19]: 16.3
- Stained Juveniles w/l root [4, 19]: 12.5
- SCN Within Root [4, 20]: 17.5
- Soybean Cyst Nematodes per Gram of Root [4, 20]: 128
- SCN Within Root [4, 21]: 5.0
- Soybean Cyst Nematodes per Gram of Root [4, 21]: 29.6
- SCN Cysts per Root ([4]; Series 1 Trial 3, 0.15 mg ai/seed): 10.4
- SCN Cysts per Root ([4]; Series 1 Trial 3, 0.30 mg ai/seed): 5.5
- Mean SCN/root [4, 14]: 52.3
- No. SCN/g root tissue [4, 14]: 30.4
- Mean SCN/root [4, 15]: 37.0
- No. SCN/g root tissue [4, 15]: 16.9
- Mean SCN/root [4, 16]: 35.2
- No. SCN/g root tissue [4, 16]: 15.2
- Juveniles per 100 cc s Soil [10]: 254
- Percentage of Dead Nematodes (Lance (Hoplolaimus Spp.); exposure 1 hours, 0.1 ppm): 12.7 Percentage
- Percentage of Dead Nematodes (Lance (Hoplolaimus Spp.); exposure 1 hours, 10 ppm): 37.9 Percentage
- Percentage of Dead Nematodes (Lance (Hoplolaimus Spp.); exposure 1 hours, 100 ppm): 74.8 Percentage
- Percentage of Dead Nematodes (Lance (Hoplolaimus Spp.); exposure 24 hours, 0.1 ppm): 68.5 Percentage
- Percentage of Dead Nematodes (Lance (Hoplolaimus Spp.); exposure 24 hours, 10 ppm): 81.6 Percentage
- Percentage of Dead Nematodes (Lance (Hoplolaimus Spp.); exposure 24 hours, 100 ppm): 23.9 Percentage
- Percentage of Dead Nematodes (Lance (Hoplolaimus Spp.); exposure 48 hours, 0.1 ppm): 41 d Percentage
- Percentage of Dead Nematodes (Lance (Hoplolaimus Spp.); exposure 48 hours, 10 ppm): 93.8 Percentage
- Percentage of Dead Nematodes (Lance (Hoplolaimus Spp.); exposure 48 hours, 100 ppm): 74.8 Percentage
- Percentage of Dead Nematodes (Lance (Hoplolaimus Spp.); exposure 72 hours, 0.1 ppm): 32.9 Percentage
- Percentage of Dead Nematodes (Lance (Hoplolaimus Spp.); exposure 72 hours, 10 ppm): 93.8 Percentage
- Percentage of Dead Nematodes (Lance (Hoplolaimus Spp.); exposure 72 hours, 100 ppm): 77.5 Percentage
- Mean Difference in Yield Compared to Checks ([5]; Trial 4, 0.075 mg ai/seed): +3.0 Bu/Ac
- Mean Difference in Yield Compared to Checks ([5]; Trial 5, 0.075 mg ai/seed): +3.7 Bu/Ac
- Mean Difference in Yield Compared to Checks ([5]; Trial 6, 0.075 mg ai/seed): +7.5 Bu/Ac
- Juveniles per 100 cc s Soil ([11]; Reniform (adult)): 2.8
- Juveniles per 100 cc s Soil ([11]; Reniform (juvenile)): 1752
- Percentage of Dead Nematodes ([12]; exposure 1 hours, 0.1 ppm): 6.3 Percentage
- Percentage of Dead Nematodes ([12]; exposure 1 hours, 10 ppm): 5.9 Percentage
- Percentage of Dead Nematodes ([12]; exposure 1 hours, 100 ppm): 11.3 Percentage
- Percentage of Dead Nematodes ([12]; exposure 24 hours, 0.1 ppm): 4.7 Percentage
- Percentage of Dead Nematodes ([12]; exposure 24 hours, 10 ppm): 59.5 Percentage
- Percentage of Dead Nematodes ([12]; exposure 24 hours, 100 ppm): 42.9 Percentage
- Percentage of Dead Nematodes ([12]; exposure 48 hours, 0.1 ppm): 29.3 Percentage
- Percentage of Dead Nematodes ([12]; exposure 48 hours, 10 ppm): 56.3 Percentage
- Percentage of Dead Nematodes ([12]; exposure 48 hours, 100 ppm): 58 Percentage
- Percentage of Dead Nematodes ([12]; exposure 72 hours, 0.1 ppm): 34.9 Percentage
- Percentage of Dead Nematodes ([12]; exposure 72 hours, 10 ppm): 81.1 Percentage
- Percentage of Dead Nematodes ([12]; exposure 72 hours, 100 ppm): 97.1 Percentage
- Effect on nematode numbers (in words) [6]: reduce nematode numbers
- Lesion Nematode per gram of Root ([6]; 0.4 mg ai/seed): 389
- Lesion Nematodes within root system ([6]; 0.4 mg ai/seed): 302
- Lesion Nematode per gram of Root ([6]; 0.5 mg ai/seed): 105
- Lesion Nematodes within root system ([6]; 0.5 mg ai/seed): 124
